Source: patent US12622891B2, “AMP-activated protein kinase activator” (KYOTO PHARMACEUTICAL UNIVERSITY, priority 2021, dated 2026)

Key:
[1] = tested on: phosphorylated AMPK; assay: Phosphorylated AMPK increasing action on human colon cancer SW48 cells (Western blot, phospho-AMPKα Thr172); format: cell-based; settings: 100 nM, 2 days; FIG. 6
Procedure: Human colon cancer SW48 cells were cultured in a 5% CO2 incubator at 37° C. using DMEM (FUJIFILM Wako Pure Chemical Corporation, Japan) supplemented with 10% bovine fetal serum (FBS, HyClone, GE Healthcare Life Sciences, Buckinghamshire, England) and 1% penicillin/streptomycin (FUJIFILM Wako Pure Chemical Corporation, respectively 100 units/mL, 100 μg/mL). SW48 cells were suspended in trypsin (Lonza, Walkersville, MD, USA), and 1×10^5 cells were seeded in a 6-well dish (TPP, Trasadingen, Switzerland). After 24 hr, the cells were treated with the compounds of the present invention (compound (I-4), compound (I-5), and compound (I-10)) diluted with a culture medium to a final concentration of 100 nM and allowed to act for 2 days. Cellular proteins were dissolved in 1% SDS buffer supplemented with a protease inhibitor cocktail mix (Nacalai Tesque, Kyoto, Japan), and SDS-PAGE was performed. After transferring to PVDF membrane (Millipore, Billerica, MA, USA), Western blot analysis was performed using anti-phospho-AMPKα (Thr172, 1:1000, #2535; CST) antibody. GAPDH protein was analyzed as a loading control.

[2] = tested on: human colon cancer SW48 cells; assay: Proliferation suppressive action on human colon cancer SW48 cells (Trypan blue viable cell count); format: cell-based; settings: 500 nM, 3 days; FIG. 4
Procedure: Human colon cancer SW48 cells were cultured in a 5% CO2 incubator at 37° C. using DMEM (FUJIFILM Wako Pure Chemical Corporation, Japan) supplemented with 10% bovine fetal serum (FBS, HyClone, GE Healthcare Life Sciences, Buckinghamshire, England) and 1% penicillin/streptomycin (FUJIFILM Wako Pure Chemical Corporation, respectively 100 units/mL, 100 μg/mL). SW48 cells were suspended in trypsin (Lonza, Walkersville, MD, USA), and 1×10^5 cells were seeded in a 6-well dish (TPP, Trasadingen, Switzerland). After 24 hr, a group of the compounds of the present invention (compound (I-4), compound (I-5), and compound (I-10)) diluted with a culture medium to a final concentration of 500 nM was allowed to act for 3 days. Proliferation of these cells was evaluated using Trypan blue (FUJIFILM Wako Pure Chemical Corporation, Japan) staining method and counting the number of viable cells using a Countess II automatic cell counter (Thermo Fisher Scientific, Waltham, MA).

[3] = tested on: AMP/ATP ratio of human colon cancer SW48 cells; assay: AMP/ATP ratio increasing action on human colon cancer SW48 cells (AMP Glo / Cell Titer Glo); format: cell-based; settings: 500 nM and 1 μM, 2 days; FIG. 5
Procedure: Human colon cancer SW48 cells were cultured in a 5% CO2 incubator at 37° C. using DMEM (FUJIFILM Wako Pure Chemical Corporation, Japan) supplemented with 10% bovine fetal serum (FBS, HyClone, GE Healthcare Life Sciences, Buckinghamshire, England) and 1% penicillin/streptomycin (FUJIFILM Wako Pure Chemical Corporation, respectively 100 units/mL, 100 μg/mL). SW48 cells were suspended in trypsin (Lonza, Walkersville, MD, USA), and 1×10^5 cells were seeded in a 6-well dish (TPP, Trasadingen, Switzerland). After 24 hr, the cells were treated with the compound of the present invention (compound (I-5)) diluted with a culture medium to final concentrations of 500 nM and 1 μM and allowed to act for 2 days. Intracellular AMP was measured with the AMP Glo assay kit (Promega, Madison, WI, USA), and intracellular ATP was measured with the Cell Titer Glo Luminescent Cell Viability Assay Kit (Promega, Madison, WI, USA) using a SYNERGY HT (BioTek Instruments, Inc. Winooski, VT, USA), and the AMP/ATP ratio was calculated.

[4] = tested on: human glioblastoma cell line U251; assay: Proliferation of human glioblastoma U251 cells, compound alone or combined with temozolomide (viable cell count, CI/isobologram); format: cell-based; settings: temozolomide 12.5, 25, 50 μM with compound 25, 50, 100 nM, 6 days; CI < 0.9 = synergistic; FIG. 2
Procedure: According to the method described in a literature (Matsumura K, et al. BMC Cancer (2016) 16(1):748.), human glioblastoma cell line U251 was cultured in a 5% CO2 incubator at 37° C. using DMEM (FUJIFILM Wako Pure Chemical Corporation, Japan) supplemented with 10% bovine fetal serum (FBS, HyClone, GE Healthcare Life Sciences, Buckinghamshire, England) and 1% penicillin/streptomycin (FUJIFILM Wako Pure Chemical Corporation, respectively 100 units/mL, 100 μg/mL). Temozolomide (Sigma Chemical, St. Louis, MO, USA) which is used as a standard drug for the treatment of glioblastoma was dissolved at 200 mM using dimethyl sulfoxide (Nacalai Tesque, Kyoto, Japan) as a solvent. […] Proliferation of these cells was evaluated using Trypan blue (FUJIFILM Wako Pure Chemical Corporation, Japan) staining method and counting the number of viable cells using a Countess II automatic cell counter (Thermo Fisher Scientific, Waltham, MA). Combination index (CI) values of temozolomide and the compound of the present invention were calculated using CalcuSyn 2.11 software (Biosoft, Cambridge, UK), and Isobologram analysis was performed. The CI value of less than 0.9 was determined to be a synergistic effect, the CI value of 0.9 or more and less than 1.1 was determined to be an additive effect, and the CI value of 1.1 or more was determined to be an antagonistic effect.

[5] = tested on: human colon cancer SW48 transplanted tumors; assay: In vivo antitumor effect in a human colon cancer SW48 cell subcutaneous transplantation model; parameters: species or system mouse; settings: CB17 SCID mice, 20 mg/kg intraperitoneally every day from 4 days after transplantation, 3.5 weeks; FIG. 7(A),(B)
Procedure: (§1) According to the method described in a literature (Ii H, et al. ChemMedChem. (2018) 13(2):155-163), human colon cancer SW48 cells were cultured in a 5% CO2 incubator at 37° C. using DMEM (FUJIFILM Wako Pure Chemical Corporation, Japan) supplemented with 10% bovine fetal serum (FBS, HyClone, GE Healthcare Life Sciences, Buckinghamshire, England) and 1% penicillin/streptomycin (FUJIFILM Wako Pure Chemical Corporation, respectively 100 units/mL, 100 μg/mL). SW48 cells were suspended in trypsin (Lonza, Walkersville, MD, USA), and 3×10^6 cells were suspended in 100 μL of PBS/Matrigel (1:1, Corning, Corning, NY, USA), and subcutaneously injected into 6-week-old male or female CB17 SCID mice (Japan Clea, Osaka, Japan) to create a subcutaneous transplantation tumor model. The compound of the present invention was dissolved in 10% ethanol (FUJIFILM Wako Pure Chemical Corporation, Japan), 10% dimethyl sulfoxide (Nacalai Tesque, Kyoto, Japan), 10% Cremophor EL (Sigma Chemical, St. Louis, MO, USA), and 70% saline (Nacalai Tesque, Kyoto, Japan), and administered intraperitoneally at a dose of 20 mg/kg every day from 4 days after transplantation. The major diameter and minor diameter were measured twice a week using calipers, and the tumor volume was calculated by 0.5× major diameter×minor diameter^2. 3.5 Weeks after cell transplantation, the tumor was removed and the weight was measured. […]

[6] = Body weight change on daily intraperitoneal administration in the SW48 transplantation model; format: in vivo, mouse; settings: CB17 SCID mice, 20 mg/kg daily intraperitoneally for 3.5 weeks; FIG. 7(C)
Procedure: as §1

[7] = tested on: glioblastoma transplanted tumor; assay: In vivo antitumor effect in a mouse glioblastoma transplantation model (luciferase imaging); settings: C57BL6J mouse, 10 mg/kg intraperitoneally three times a week, three weeks after transplantation; FIG. 3
Procedure: According to the method described in a literature (Tanigawa S, et al. Cancer Gene Therapy (2021). https://doi.org/10.1038/s41417-020-00282-5), murine glioblastoma stem cells introduced with the Luciferase gene were established, and cultured as neurosphere cells in a 5% CO2 incubator at 37° C. using Neurobasal medium supplemented with B27 and N2 supplements (Gibco/Thermo Fisher Scientific, Waltham, MA, USA) and 10 ng/mL of EGF and bFGF (R&D Systems, Minneapolis, MN, USA). The neurospheres were made into a single cell suspension by Accutase (Innovative Cell Technologies, San Diego, CA, USA) treatment, and 1×10^3 cells suspended in 2 μL of PBS were transplanted into the cerebrum of a 6-week-old male C57BL6J mouse (Oriental Bioservice, Kyoto, Japan) fixed on a Stereotaxic Instrument (51730D; Stoelting Co., Wood Dale, IL, USA) using a 30-gauge Hamilton syringe with autoinjector (Legato130; KD Scientific, Holliston, MA, USA). […] Three weeks after cell transplantation, D-luciferin was administered intraperitoneally at a dose of 150 mg/kg and in vivo tumor size was evaluated using the IVIS Lumina XR imaging system (Summit Pharmaceuticals International, Tokyo, Japan).

[8] = tested on: phosphorylated AMPK; assay: Phosphorylated AMPK increasing action on human lung cancer A549 cells (Western blot, phospho-AMPKα Thr172); format: cell-based; settings: 100 nM to 1 μM, 3 days; FIG. 9
Procedure: Human lung cancer A549 cells were cultured in a 5% CO2 incubator at 37° C. using DMEM (FUJIFILM Wako Pure Chemical Corporation, Japan) supplemented with 10% bovine fetal serum (FBS, HyClone, GE Healthcare Life Sciences, Buckinghamshire, England) and 1% penicillin/streptomycin (FUJIFILM Wako Pure Chemical Corporation, respectively 100 units/mL, 100 μg/mL). A549 cells were suspended in trypsin (Lonza, Walkersville, MD, USA), and 1×10^5 cells were seeded in a 6-well dish (TPP, Trasadingen, Switzerland). After 24 hr, they were treated with the compound of the present invention diluted in a culture medium to final concentrations of 100 nM to 1 μM and allowed to act for 3 days. Cellular proteins were dissolved in 1% SDS buffer supplemented with a protease inhibitor cocktail mix (Nacalai Tesque, Kyoto, Japan), and SDS-PAGE was performed. After transferring to PVDF membrane (Millipore, Billerica, MA, USA), Western blot analysis was performed using anti-phospho-AMPKα (Thr172, 1:1000, #2535; CST) antibody. GAPDH protein was analyzed as a loading control.

Row | Compound | phosphorylated AMPK in SW48 cells [1] | proliferation of human colon cancer SW48 cells (number of viable cells) [2] | AMP/ATP ratio of SW48 cells [3] | combination effect with temozolomide on proliferation of U251 cells (combination index, isobologram) [4] | tumor volume and tumor mass of SW48 subcutaneous transplanted tumors [5] | body weight change [6] | in vivo tumor size of transplanted glioblastoma [7] | phosphorylated AMPK in A549 cells [8]
1 | CCCCCCCCCOCCOCCOCCOCCCCCCCCCCCCNC(=O)c1ccsc1 [I-4, N-(13,16,19,22-tetraoxahentriacontan-1-yl)thiophene-3-carboxamide] | phosphorylated AMPK increasing action | proliferation suppressive action |  |  |  |  |  | 
2 | CCCCCCCCCCOCCOCCOCCOCCCCCCCCCCCCNC(=O)c1ccsc1 [I-5, N-(13,16,19,22-tetraoxadotriacontan-1-yl)thiophene-3-carboxamide] | phosphorylated AMPK increasing action | proliferation suppressive action | has action to increase the AMP/ATP ratio | synergistically potentiates the proliferation suppressive ability of temozolomide | suppresses proliferation of human colon cancer SW48 transplanted tumors | no significant body weight change | suppresses proliferation of glioblastoma transplanted tumor | 
3 | COCCOCCOCCOCCCCCCCCCCCCNC(=O)c1csc(C)c1 [I-10, N-(13,16,19,22-tetraoxatricosan-1-yl)-5-methylthiophene-3-carboxamide] | phosphorylated AMPK increasing action | proliferation suppressive action |  |  |  |  |  | 
4 | CCCCCCCCCCOCCOCCOCCOCCOCCCCCCCCCNC(=O)c1ccsc1 [I-16, N-(10,13,16,19,22-pentaoxadotriacontan-1-yl)thiophene-3-carboxamide] |  |  |  |  |  |  |  | phosphorylated AMPK increasing action
